Source: patent US8685724B2, “In vitro techniques for use with stem cells” (Kwalata Trading Limited, priority 2004, dated 2014)

Assays:
first-pass cells [1] = test: Enrichment of EPCs from first-pass cells on plasma-coated flasks in the presence of 17-β-estradiol, flow-cytometry staining; format: cell-based, human; conditions: 0.002-2 microgram/ml 17-β-Estradiol, 5-20% autologous serum, VEGF, Heparin, 3 experiments
Procedure: Coating T-75 Flasks with Autologous Plasma Example 3 for High % Serum Medium Culturing Collection of Cells for FACS Staining FACS Staining In a set of separate experiments, enrichment of EPCs from first-pass cells was evaluated following in-vitro growth on autologous plasma-coated T-75 Flasks in the presence of medium containing autologous serum, VEGF, 17-beta-estradiol and Heparin. These were experiments conducted with human blood, using the protocol described hereinabove. […] FACS staining results of cells cultured in media containing 5-20% autologous serum (typically 10%), 1, 2, 10, or 20 ng/ml VEGF, 0.002-2 microgram/ml 17-β-Estradiol and 5-25 IU/ml Heparin are summarized. The following surface markers were analyzed: CD45 (a pan-lymphocyte marker), the stem/progenitor cell markers CD34 and CD117, and the EPC/endothelial cell markers CD133, and KDR (VEGF-R).

first-pass cells [2] = test: Enrichment of EPCs from first-pass cells on plasma-coated flasks in the presence of progesterone, flow-cytometry staining; format: cell-based, human; conditions: 0.02-2 microgram/ml progesterone, 5-20% autologous serum, VEGF, Heparin, 3 experiments
Procedure: Coating T-75 Flasks with Autologous Plasma Example 2 for High % Serum Medium Culturing Collection of Cells for FACS Staining FACS Staining In a set of separate experiments, enrichment of EPCs from first-pass cells was evaluated following in-vitro growth on autologous plasma-coated T-75 Flasks in the presence of medium containing autologous serum, VEGF, progesterone and Heparin. These experiments were conducted with human blood, using the protocol described hereinabove. […] FACS staining results of cells cultured in media containing 5-20% autologous serum (typically 10%), 1, 2, 10, or 20 ng/ml VEGF, 0.02-2 microgram/ml progesterone and 5-25 IU/ml Heparin are summarized. The following surface markers were analyzed: CD45 (a pan-lymphocyte marker), the stem/progenitor cell markers CD34 and CD117, and the EPC/endothelial cell markers CD133 and KDR (VEGF-R).

| SMILES | CD34 average percentage staining (first-pass cells [1]) [%] | CD45 average percentage staining (first-pass cells [1]) [%] | CD117 average percentage staining (first-pass cells [1]) [%] | CD133 average percentage staining (first-pass cells [1]) [%] | KDR average percentage staining (first-pass cells [1]) [%] | CD34 AVG percentage staining (first-pass cells [2]) [%] | CD45 AVG percentage staining (first-pass cells [2]) [%] | CD117 AVG percentage staining (first-pass cells [2]) [%] | CD133 AVG percentage staining (first-pass cells [2]) [%] | KDR AVG percentage staining (first-pass cells [2]) [%] |
| --- | --- | --- | --- | --- | --- | --- | --- | --- | --- | --- |
| C[C@]12CC[C@@H]3c4ccc(O)cc4CC[C@H]3[C@@H]1CC[C@@H]2O [17-β-estradiol] | 4.12 | 96.14 | 1.41 | 1.77 | 0.28 | – | – | – | – | – |
| CC(=O)[C@H]1CC[C@H]2[C@@H]3CCC4=CC(=O)CC[C@]4(C)[C@H]3CC[C@]12C [progesterone] | – | – | – | – | – | 21.22 | 94.82 | 5.54 | 5.72 | 1.05 |
